In US11078202B2, “β-lactamase inhibitor and use thereof” (priority 2018, dated 2021):
Structures can show the parent of a compound that is named as a salt.

Experiments:
Assay type in all cases: cell-based
[1] = tested on: Klebsiella pneumoniae XNWB 0003; assay: MIC assay of test compounds combined with imipenem (4 μg/mL); conditions: imipenem 4 μg/mL fixed
Summary of the method: (§1)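 Inoculum: TSA-grown colonies (35±2 °C, 20-24 h, subcultured once), NaCl 0.9% suspension at OD600 0.1-0.15, then 300× dilution into 1.1×CAMHB. Serial compound dilutions with the partner antibiotic at a fixed level; ambient-air incubation 16-20 h, 35±2 °C; CLSI-based MIC readout.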

[2] = tested on: Pseudomonas aeruginosa XNWB 0008; assay: as above; conditions: imipenem 4 μg/mL fixed
Summary of the method: as §1

[3] = tested on: Klebsiella pneumoniae XNWB 0005; assay: as above; conditions: imipenem 4 μg/mL fixed
Summary of the method: as §1

[4] = tested on: Klebsiella pneumoniae XNWB 0004; assay: as above; conditions: imipenem 4 μg/mL fixed
Summary of the method: as §1

[5] = tested on: Klebsiella pneumoniae XNWB 0006; assay: as above; conditions: imipenem 4 μg/mL fixed
Summary of the method: as §1

[6] = tested on: Acinetobacter baumannii XNWB 0007; assay: as above; conditions: imipenem 4 μg/mL fixed
Summary of the method: as §1

[7] = tested on: Klebsiella pneumoniae XNWB 0002; assay: as above; conditions: imipenem 4 μg/mL fixed
Summary of the method: as §1

[8] = tested on: Klebsiella pneumoniae XNWB 0001; assay: as above; conditions: imipenem 4 μg/mL fixed
Summary of the method: as §1

[9] = tested on: Klebsiella pneumoniae XNWB 0003; assay: MIC assay of test compounds combined with ceftazidime (8 μg/mL); conditions: ceftazidime 8 μg/mL fixed
Summary of the method: as §1

[10] = tested on: Pseudomonas aeruginosa XNWB 0008; assay: as above; conditions: ceftazidime 8 μg/mL fixed
Summary of the method: as §1

[11] = tested on: Klebsiella pneumoniae XNWB 0005; assay: as above; conditions: ceftazidime 8 μg/mL fixed
Summary of the method: as §1

[12] = tested on: Klebsiella pneumoniae XNWB 0004; assay: as above; conditions: ceftazidime 8 μg/mL fixed
Summary of the method: as §1

[13] = tested on: Klebsiella pneumoniae XNWB 0006; assay: as above; conditions: ceftazidime 8 μg/mL fixed
Summary of the method: as §1

[14] = tested on: Acinetobacter baumannii XNWB 0007; assay: as above; conditions: ceftazidime 8 μg/mL fixed
Summary of the method: as §1

[15] = tested on: Klebsiella pneumoniae XNWB 0002; assay: as above; conditions: ceftazidime 8 μg/mL fixed
Summary of the method: as §1

[16] = tested on: Klebsiella pneumoniae XNWB 0001; assay: as above; conditions: ceftazidime 8 μg/mL fixed
Summary of the method: as §1

| SMILES | The minimum concentration of test compounds combined with imipenem (4 μg/mL) for bacteriostasis [1] | The minimum concentration of test compounds combined with imipenem (4 μg/mL) for bacteriostasis [2] | The minimum concentration of test compounds combined with imipenem (4 μg/mL) for bacteriostasis [3] | The minimum concentration of test compounds combined with imipenem (4 μg/mL) for bacteriostasis [4] | The minimum concentration of test compounds combined with imipenem (4 μg/mL) for bacteriostasis [5] | The minimum concentration of test compounds combined with imipenem (4 μg/mL) for bacteriostasis [6] | The minimum concentration of test compounds combined with imipenem (4 μg/mL) for bacteriostasis [7] | The minimum concentration of test compounds combined with imipenem (4 μg/mL) for bacteriostasis [8] | The minimum concentration of test compounds combined with ceftazidime (8 μg/mL) for bacteriostasis [9] | The minimum concentration of test compounds combined with ceftazidime (8 μg/mL) for bacteriostasis [10] | The minimum concentration of test compounds combined with ceftazidime (8 μg/mL) for bacteriostasis [11] | The minimum concentration of test compounds combined with ceftazidime (8 μg/mL) for bacteriostasis [12] | The minimum concentration of test compounds combined with ceftazidime (8 μg/mL) for bacteriostasis [13] | The minimum concentration of test compounds combined with ceftazidime (8 μg/mL) for bacteriostasis [14] | The minimum concentration of test compounds combined with ceftazidime (8 μg/mL) for bacteriostasis [15] | The minimum concentration of test compounds combined with ceftazidime (8 μg/mL) for bacteriostasis [16] |
| --- | --- | --- | --- | --- | --- | --- | --- | --- | --- | --- | --- | --- | --- | --- | --- | --- |
| N=C(N)N1CC(NCc2cc([C@@H]3CC4(CC4)[C@@H]4CN3C(=O)N4OS(=O)(=O)O)no2)C1 [Example 51, (1R,4S)-4-(5-(((1-amidinoazetidin-3-yl)amino)methyl)isoxazol-3-yl)-6-oxo-5,7-diazaspiro[bicyclo[3.2.1]octane-2,1′-cyclopropan]-7-yl sulfate] | A (A: <8 μg/mL) | A (A: <8 μg/mL) | A (A: <8 μg/mL) | A (A: <8 μg/mL) | A (A: <8 μg/mL) | C (C: 16-128 μg/mL) | A (A: <8 μg/mL) | A (A: <8 μg/mL) | B (B: 8-16 μg/mL) | B (B: 8-16 μg/mL) | B (B: 8-16 μg/mL) | C (C: 16-128 μg/mL) | A (A: <8 μg/mL) | C (C: 16-128 μg/mL) | A (A: <8 μg/mL) | A (A: <8 μg/mL) |
| O=C(NC1CCNCC1)[C@@H]1CC2(CC2)[C@@H]2CN1C(=O)N2OS(=O)(=O)O [Example 27, (1R,4S)-6-oxo-4-(piperidin-4-ylaminoformyl)-5,7-diazaspiro[bicyclo[3.2.1]octane-2,1′-cyclopropan]-7-yl sulfate] | A (A: <8 μg/mL) | A (A: <8 μg/mL) | A (A: <8 μg/mL) | A (A: <8 μg/mL) | A (A: <8 μg/mL) | C (C: 16-128 μg/mL) | A (A: <8 μg/mL) | A (A: <8 μg/mL) | B (B: 8-16 μg/mL) | A (A: <8 μg/mL) | A (A: <8 μg/mL) | B (B: 8-16 μg/mL) | A (A: <8 μg/mL) | C (C: 16-128 μg/mL) | A (A: <8 μg/mL) | A (A: <8 μg/mL) |
| O=C1N2C[C@H](N1OS(=O)(=O)O)C1(CC1)C[C@H]2c1nnc(CC2CNC2)o1 [Example 23, (1R,4S)-4-(5-(azetidin-3-ylmethyl)-1,3,4-oxadiazol-2-yl)-6-oxo-5,7-diazaspiro[bicycle [3.2.1]octane-2,1′-cyclopropan]-7-yl sulfate] | A (A: <8 μg/mL) | A (A: <8 μg/mL) | A (A: <8 μg/mL) | A (A: <8 μg/mL) | A (A: <8 μg/mL) | B (B: 8-16 μg/mL) | A (A: <8 μg/mL) | A (A: <8 μg/mL) | A (A: <8 μg/mL) | B (B: 8-16 μg/mL) | A (A: <8 μg/mL) | A (A: <8 μg/mL) | A (A: <8 μg/mL) | C (C: 16-128 μg/mL) | A (A: <8 μg/mL) | A (A: <8 μg/mL) |
| CNCCNC[C@H](O)c1nnc([C@@H]2CC3(CC3)[C@@H]3CN2C(=O)N3OS(=O)(=O)O)o1 [Example 30, (1R,4S)-4-(5-((S)-1-hydroxy-2-((2-(methylamino)ethyl)amino)ethyl)-1,3,4-oxadiazol-2-yl)-6-oxo-5,7-diazaspiro[bicyclo[3.2.1]octane-2,1′-cyclopropan]-7-yl sulfate] | A (A: <8 μg/mL) | C (C: 16-128 μg/mL) | A (A: <8 μg/mL) | A (A: <8 μg/mL) | A (A: <8 μg/mL) | B (B: 8-16 μg/mL) | A (A: <8 μg/mL) | A (A: <8 μg/mL) | A (A: <8 μg/mL) | C (C: 16-128 μg/mL) | B (B: 8-16 μg/mL) | B (B: 8-16 μg/mL) | A (A: <8 μg/mL) | C (C: 16-128 μg/mL) | A (A: <8 μg/mL) | B (B: 8-16 μg/mL) |
| O=C1N2C[C@H](N1OS(=O)(=O)O)C1(CC1)C[C@H]2c1cc(C2CCCNC2)on1 (stereo partly drawn) [Example 44, (1R,4S)-6-oxo-4-(5-(piperidin-3-yl)isoxazol-3-yl)-5,7-diazaspiro[bicyclo[3.2.1]octane-2,1′-cyclopropan]-7-yl sulfate] | A (A: <8 μg/mL) | A (A: <8 μg/mL) | A (A: <8 μg/mL) | A (A: <8 μg/mL) | A (A: <8 μg/mL) | C (C: 16-128 μg/mL) | A (A: <8 μg/mL) | A (A: <8 μg/mL) | A (A: <8 μg/mL) | B (B: 8-16 μg/mL) | A (A: <8 μg/mL) | B (B: 8-16 μg/mL) | A (A: <8 μg/mL) | C (C: 16-128 μg/mL) | A (A: <8 μg/mL) | A (A: <8 μg/mL) |
